Molecular target: T1, LHRH rat pituitary receptor (Rattus norvegicus, UniProt P30969)
T1 construct: from tissue; host or cells: rat pituitary
T1 sequence (P30969 1-327): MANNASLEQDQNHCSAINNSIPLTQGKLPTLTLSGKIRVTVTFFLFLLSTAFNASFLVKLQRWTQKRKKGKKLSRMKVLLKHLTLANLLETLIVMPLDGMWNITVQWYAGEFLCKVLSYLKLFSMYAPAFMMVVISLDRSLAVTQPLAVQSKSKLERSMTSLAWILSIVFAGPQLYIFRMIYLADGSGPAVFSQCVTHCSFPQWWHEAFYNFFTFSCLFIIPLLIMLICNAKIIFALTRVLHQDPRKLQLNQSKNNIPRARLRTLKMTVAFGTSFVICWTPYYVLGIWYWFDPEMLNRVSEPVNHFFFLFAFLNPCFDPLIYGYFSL
Assay: LHRH rat pituitary receptor binding (pKI)
Conditions: receptor binding affinity, negative logarithm of the equilibrium dissociation constants
Description: Representative compounds of the present invention were evaluated in in vitro tests for LHRH rat pituitary receptor binding (pKI) and for LH inhibition from rat pituitary cells for antagonist potency (pA2). The tests employed the methods detailed in F. Haviv, et al. J. Med. Chem., 32: 2340-2344 (1989). The receptor binding affinity (pKI) is the negative logarithm of the equilibrium dissociation constants.

Structure (SMILES) | Ki [nM]
CC[C@H]1OC(=O)[C@H](C)[C@@H](OC(=O)N2C(=S)OC[C@@H]2C)[C@H](C)[C@@H](O[C@@H]2O[C@H](C)C[C@H](N(C)CC3CC3)[C@H]2O)[C@](C)(OC)C[C@@H](C)C(=O)[C@H](C)[C@H]2N(CCc3ccc(Cl)c(Cl)c3)C(=O)O[C@]12C [Example 41, 11-Deoxy-11-[carboxy(3,4-dichlorophenethyl)amino]-3-O-[4-(S)-methyl-oxazolidin-2-thione]carbamoyl-5-O-(3'-N-desmethyl-3'-N-cyclopropylmethyl)desosaminyl-6-O-methyl-erythronolide A 11,12-(cyclic carbamate)] | 10.2
CC[C@H]1OC(=O)[C@H](C)[C@@H](OC(=O)N2C(=O)OC[C@@H]2C)[C@H](C)[C@@H](O[C@@H]2O[C@H](C)C[C@H](N(C)CC3CC3)[C@H]2O)[C@](C)(OC)C[C@@H](C)C(=O)[C@H](C)[C@H]2N(CCc3ccc(Cl)c(F)c3)C(=O)O[C@]12C [Example 36, 11-Deoxy-11-[carboxy(4-chloro-3-fluorophenethyl)amino]-3-O-[4-(S)-methyl-oxazolidin-2-one]carbamoyl-5-O-(3'-N-desmethyl-3'-N-cyclopropylmethyl)desosaminyl-6-O-methyl-erythronolide A 11,12-(cyclic carbamate)] | 3.72
CC[C@H]1OC(=O)[C@H](C)[C@@H](OC(=O)N2C(=O)OC[C@@H]2C)[C@H](C)[C@@H](O[C@@H]2O[C@H](C)C[C@H](N(C)C3CCC3)[C@H]2O)[C@](C)(OC)C[C@@H](C)C(=O)[C@H](C)[C@H]2N(CCc3ccc(Cl)c(Cl)c3)C(=O)O[C@]12C [Example 13, 11-Deoxy-11-[carboxy(3,4-dichlorophenethyl)amino]-3-O-[4-(S)-methyl-oxazolidin-2-one]carbamoyl-5-O-(3'-N-desmethyl-3'-N-cyclobutyl)desosaminyl-6-O-methyl-erythronolide A 11,12-(cyclic carbamate)] | 3.09
CC[C@H]1OC(=O)[C@H](C)[C@@H](OC(=O)N2C(=O)OC[C@@H]2C)[C@H](C)[C@@H](O[C@@H]2O[C@H](C)C[C@H](N(CC3CC3)CC3CC3)[C@H]2O)[C@](C)(OC)C[C@@H](C)C(=O)[C@H](C)[C@H]2N(CCc3ccc(Cl)c(F)c3)C(=O)O[C@]12C [Example 44, 11-Deoxy-11-[carboxy(4-chloro-3-fluorophenethyl)amino]-3-O-[4-(S)-methyl-oxazolidin-2-one]carbamoyl-5-O-(3'-bis-N-desmethyl-3'-bis-N-cyclopropylmethyl)desosaminyl-6-O-methyl-erythronolide A 11,12-(cyclic carbamate)] | 3.16
CC[C@H]1OC(=O)[C@H](C)[C@@H](OC(=O)N2C(=O)OC[C@@H]2C)[C@H](C)[C@@H](O[C@@H]2O[C@H](C)C[C@H](N(C)CC3(C)CC3)[C@H]2O)[C@](C)(OC)C[C@@H](C)C(=O)[C@H](C)[C@H]2N(CCc3ccc(Cl)c(Cl)c3)C(=O)O[C@]12C [Example 54, 11-Deoxy-11-[carboxy(3,4-dichlorophenethyl)amino]-3-O-[4-(S)-methyl-oxazolidin-2-one]carbamoyl-5-O-[3'-N-desmethyl-3'-N-(1-methyl-cyclopropyl)methyl]desosaminyl-6-O-methyl-erythronolide A 11,12-(cyclic carbamate)] | 1.48
CC[C@H]1OC(=O)[C@H](C)[C@@H](OC(=O)N2C(=O)OC[C@@H]2C)[C@H](C)[C@@H](O[C@@H]2O[C@H](C)C[C@H](N(C)C3CCCCC3)[C@H]2O)[C@](C)(OC)C[C@@H](C)C(=O)[C@H](C)[C@H]2N(CCc3ccc(Cl)c(Cl)c3)C(=O)O[C@]12C [Example 15, 11-Deoxy-11-[carboxy(3,4-dichlorophenethyl)amino]-3-O-[4-(S)-methyl-oxazolidin-2-one]carbamoyl-5-O-(3'-N-desmethyl-3'-N-cyclohexyl)desosaminyl-6-O-methyl-erythronolide A 11,12-(cyclic carbamate)] | 3.89
CC[C@H]1OC(=O)[C@H](C)[C@@H](OC(=O)N2C(=O)OC[C@@H]2C)[C@H](C)[C@@H](O[C@@H]2O[C@H](C)C[C@H](NCC3CC3)[C@H]2O)[C@](C)(OC)C[C@@H](C)C(=O)[C@H](C)[C@H]2N(CCc3ccc(Cl)c(Cl)c3)C(=O)O[C@]12C [Example 45, 11-Deoxy-11-[carboxy(3,4-dichlorophenethyl)amino]-3-O-[4-(S)-methyl-oxazolidin-2-one]carbamoyl-5-O-(3'-bis-N-desmethyl-3'-N-cyclopropylmethyl)desosaminyl-6-O-methyl-erythronolide A 11,12-(cyclic carbamate)] | 8.13
CC[C@H]1OC(=O)[C@H](C)[C@@H](OC(=O)N2C[C@@H](C)OC2=O)[C@H](C)[C@@H](O[C@@H]2O[C@H](C)C[C@H](N(C)CC3CC3)[C@H]2O)[C@](C)(OC)C[C@@H](C)C(=O)[C@H](C)[C@H]2N(CCc3ccc(Cl)c(Cl)c3)C(=O)O[C@]12C [Example 39, 11-Deoxy-11-[carboxy(3,4-dichlorophenethyl)amino]-3-O-[5-(R)-methyl-oxazolidin-2-one]carbamoyl-5-O-(3'-N-desmethyl-3'-N-cyclopropylmethyl)desosaminyl-6-O-methyl-erythronolide A 11,12-(cyclic carbamate)] | 2.82
CC[C@H]1OC(=O)[C@H](C)[C@@H](OC(=O)N2C(=O)SC[C@@H]2C)[C@H](C)[C@@H](O[C@@H]2O[C@H](C)C[C@H](N(C)CC3CC3)[C@H]2O)[C@](C)(OC)C[C@@H](C)C(=O)[C@H](C)[C@H]2N(CCc3ccc(Cl)c(Cl)c3)C(=O)O[C@]12C [Example 40, 11-Deoxy-11-[carboxy(3,4-dichlorophenethyl)amino]-3-O-[4-(S)-methyl-thiazolidin-2-one]carbamoyl-5-O-(3'-N-desmethyl-3'-N-cyclopropylmethyl)desosaminyl-6-O-methyl-erythronolide A 11,12-(cyclic carbamate)] | 8.13
CC[C@H]1OC(=O)[C@H](C)[C@@H](OC(=O)N2C(=O)OC[C@@H]2C)[C@H](C)[C@@H](O[C@@H]2O[C@H](C)C[C@H](N(C)CC3CCC3)[C@H]2O)[C@](C)(OC)C[C@@H](C)C(=O)[C@H](C)[C@H]2N(CCc3ccc(Cl)c(Cl)c3)C(=O)O[C@]12C [Example 18, 11-Deoxy-11-[carboxy(3,4-dichlorophenethyl)amino]-3-O-[4-(S)-methyl-oxazolidin-2-one]carbamoyl-5-O-(3'-N-desmethyl-3'-N-cyclobutylmethyl)desosaminyl-6-O-methyl-erythronolide A 11,12-(cyclic carbamate)] | 0.933

Compounds with a lower Ki, results first:

Ki [nM] | Structure (SMILES)
0.0741 | CC[C@H]1OC(=O)[C@H](C)[C@@H](OC(=O)N2C(=O)OC[C@@H]2C)[C@H](C)[C@@H](O[C@@H]2O[C@H](C)C[C@H](N(CC3CC3)C(C)C)[C@H]2O)[C@](C)(OC)C[C@@H](C)C(=O)[C@H](C)[C@H]2N(CCc3ccc(Cl)c(Cl)c3)C(=O)O[C@]12C [Example 22, 11-Deoxy-11-[carboxy(3,4-dichlorophenethyl)amino]-3-O-[4-(S)-methyl-oxazolidin-2-one]carbamoyl-5-O-(3'-bis-N-desmethyl-3'-N-cyclopropylmethyl-3'-N-isopropyl)desosaminyl-6-O-methyl-erythronolide A 11,12-(cyclic carbamate)]
0.0832 | CC[C@H]1OC(=O)[C@H](C)[C@@H](OC(=O)N2C(=O)OC[C@@H]2C)[C@H](C)[C@@H](O[C@@H]2O[C@H](C)C[C@H](N(C)C3CCC3)[C@H]2O)[C@](C)(OC)C[C@@H](C)C(=O)[C@H](C)[C@H]2N(CCc3ccc(F)c(Cl)c3)C(=O)O[C@]12C [Example 34, 11-Deoxy-11-[carboxy(3-chloro-fluorophenethyl)amino]-3-O-[4-(S)-methyl-oxazolidin-2-one]carbamoyl-5-O-(3'-N-desmethyl-3'-N-cyclobutyl)desosaminyl-6-O-methyl-erythronolide A 11,12-(cyclic carbamate)]
0.692 | CC[C@H]1OC(=O)[C@H](C)[C@@H](OC(=O)N2C(=O)OC[C@@H]2C)[C@H](C)[C@@H](O[C@@H]2O[C@H](C)C[C@H](N(CC3CC3)CC3CC3)[C@H]2O)[C@](C)(OC)C[C@@H](C)C(=O)[C@H](C)[C@H]2N(CCc3ccc(F)c(Cl)c3)C(=O)O[C@]12C [Example 43, 11-Deoxy-11-[carboxy(3-chloro-4-fluorophenethyl)amino]-3-O-[4-(S)-methyl-oxazolidin-2-one]carbamoyl-5-O-(3'-bis-N-desmethyl-3'-bis-N-cyclopropylmethyl)desosaminyl-6-O-methyl-erythronolide A 11,12-(cyclic carbamate)]
0.851 | CC[C@H]1OC(=O)[C@H](C)[C@@H](OC(=O)N2C(=O)OC[C@@H]2C)[C@H](C)[C@@H](O[C@@H]2O[C@H](C)C[C@H](N(C)C3CCCC3)[C@H]2O)[C@](C)(OC)C[C@@H](C)C(=O)[C@H](C)[C@H]2N(CCc3ccc(F)c(Cl)c3)C(=O)O[C@]12C [Example 35, 11-Deoxy-11-[carboxy(3-chloro-4-fluorophenethyl)amino]-3-O-[4-(S)-methyl-oxazolidin-2-one]carbamoyl-5-O-(3'-N-desmethyl-3'-N-cyclopentyl)desosaminyl-6-O-methyl-erythronolide A 11,12-(cyclic carbamate)]
0.166 | CC[C@H]1OC(=O)[C@H](C)[C@@H](OC(=O)N2C(=O)OC[C@@H]2C)[C@H](C)[C@@H](O[C@@H]2O[C@H](C)C[C@H](N(C)C3CCCCC3)[C@H]2O)[C@](C)(OC)C[C@@H](C)C(=O)[C@H](C)[C@H]2N(CCc3ccc(Cl)cc3)C(=O)O[C@]12C [Example 26, 11-Deoxy-11-[carboxy(4-chlorophenethyl)amino]-3-O-[4-(S)-methyl-oxazolidin-2-one]carbamoyl-5-O-(3'-N-desmethyl-3'-N-cyclohexyl)desosaminyl-6-O-methyl-erythronolide A 11,12-(cyclic carbamate)]

— patent US6020521A, “Macrolide LHRH antagonists” (Abbott Laboratories, priority 1998, dated 2000)
